Source: ChEMBL document CHEMBL1932957, “Synthesis of 2H-benzo[b][1,4]oxazin-3(4H)-one derivatives as platelet aggregation inhibitors” (Bioorg Med Chem Lett, 2012)

Assay: Antiplatelet activity in rabbit platelet rich plasma assessed as inhibition of ADP-induced platelet aggregation treated for 5 mins before ADP challenge measured for 6 mins by microplate reader
Type: functional, cell-free
Settings: Oryctolagus cuniculus

Structure (SMILES)	IC50
CCCCN1C(=O)COc2cc(CNc3ccccc3)ccc21	15.2 µM
CCCN1C(=O)COc2cc(CNc3ccccc3C)ccc21	18.8 µM
CCCCN1C(=O)COc2cc(CNc3ccccc3C)ccc21	18.8 µM
CCCN1C(=O)COc2cc(CNc3cccc(C)c3)ccc21	13.9 µM
CCCCN1C(=O)COc2cc(CNc3cccc(C)c3)ccc21	12.7 µM
CCCN1C(=O)COc2cc(CNc3ccc(C)cc3)ccc21	14.2 µM

These reach a lower IC50. Values come first.

IC50	Structure (SMILES)
10.1 µM	CCCN1C(=O)COc2cc(CNc3ccccc3)ccc21
6.07 µM	CC(=O)Oc1ccccc1C(=O)O [ASPIRIN]
3.18 µM	Clc1ccccc1CN1CCc2sccc2C1 [TICLOPIDINE]
